Data on 18 molecules can be found in patent US20210070748A1, “INHIBITORS OF BRUTONS TYROSINE KINASE” (Pharmacyclics LLC, priority 2015, published 2021).

One experiment concerns the target T1, JAK3 (Homo sapiens, UniProt P52333).
T1 sequence (P52333 1-1124): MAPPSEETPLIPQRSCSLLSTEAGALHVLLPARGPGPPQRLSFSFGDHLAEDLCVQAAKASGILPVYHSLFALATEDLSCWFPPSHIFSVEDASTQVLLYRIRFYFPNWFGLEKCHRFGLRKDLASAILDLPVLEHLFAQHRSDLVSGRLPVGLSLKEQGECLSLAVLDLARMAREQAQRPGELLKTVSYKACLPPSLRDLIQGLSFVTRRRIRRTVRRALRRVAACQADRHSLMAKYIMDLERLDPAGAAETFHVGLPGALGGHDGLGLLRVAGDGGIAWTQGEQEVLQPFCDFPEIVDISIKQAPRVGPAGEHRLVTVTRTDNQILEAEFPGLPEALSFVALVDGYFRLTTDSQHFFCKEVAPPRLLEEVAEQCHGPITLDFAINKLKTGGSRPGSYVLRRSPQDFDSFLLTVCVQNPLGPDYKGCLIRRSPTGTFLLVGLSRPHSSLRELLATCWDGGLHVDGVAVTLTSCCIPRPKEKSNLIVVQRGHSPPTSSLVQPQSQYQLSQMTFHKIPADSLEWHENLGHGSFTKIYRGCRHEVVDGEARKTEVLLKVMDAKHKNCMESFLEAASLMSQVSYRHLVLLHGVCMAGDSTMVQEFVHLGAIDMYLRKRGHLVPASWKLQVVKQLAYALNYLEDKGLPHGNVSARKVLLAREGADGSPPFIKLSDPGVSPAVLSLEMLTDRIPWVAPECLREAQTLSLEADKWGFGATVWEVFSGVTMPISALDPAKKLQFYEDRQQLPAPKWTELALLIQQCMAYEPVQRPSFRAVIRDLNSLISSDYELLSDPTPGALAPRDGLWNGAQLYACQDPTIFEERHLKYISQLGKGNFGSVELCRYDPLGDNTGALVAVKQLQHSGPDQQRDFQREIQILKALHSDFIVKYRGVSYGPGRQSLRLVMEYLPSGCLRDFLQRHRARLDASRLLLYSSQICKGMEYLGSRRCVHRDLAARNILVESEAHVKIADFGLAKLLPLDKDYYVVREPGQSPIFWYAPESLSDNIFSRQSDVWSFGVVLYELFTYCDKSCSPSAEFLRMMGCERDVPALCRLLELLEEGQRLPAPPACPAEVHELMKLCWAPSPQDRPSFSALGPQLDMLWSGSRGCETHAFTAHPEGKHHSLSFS
The experiment is described as follows: Inhibition of a panel of kinases, in vitro HotSpot kinase assay: JAK3. It is filed as biochemical. Particulars: D-compounds panel data; 1 μM ATP; read-out: IC50 JAK3.

Another experiment deals with T2, TEC (Homo sapiens, UniProt P42680).
T2 sequence (P42680 1-631): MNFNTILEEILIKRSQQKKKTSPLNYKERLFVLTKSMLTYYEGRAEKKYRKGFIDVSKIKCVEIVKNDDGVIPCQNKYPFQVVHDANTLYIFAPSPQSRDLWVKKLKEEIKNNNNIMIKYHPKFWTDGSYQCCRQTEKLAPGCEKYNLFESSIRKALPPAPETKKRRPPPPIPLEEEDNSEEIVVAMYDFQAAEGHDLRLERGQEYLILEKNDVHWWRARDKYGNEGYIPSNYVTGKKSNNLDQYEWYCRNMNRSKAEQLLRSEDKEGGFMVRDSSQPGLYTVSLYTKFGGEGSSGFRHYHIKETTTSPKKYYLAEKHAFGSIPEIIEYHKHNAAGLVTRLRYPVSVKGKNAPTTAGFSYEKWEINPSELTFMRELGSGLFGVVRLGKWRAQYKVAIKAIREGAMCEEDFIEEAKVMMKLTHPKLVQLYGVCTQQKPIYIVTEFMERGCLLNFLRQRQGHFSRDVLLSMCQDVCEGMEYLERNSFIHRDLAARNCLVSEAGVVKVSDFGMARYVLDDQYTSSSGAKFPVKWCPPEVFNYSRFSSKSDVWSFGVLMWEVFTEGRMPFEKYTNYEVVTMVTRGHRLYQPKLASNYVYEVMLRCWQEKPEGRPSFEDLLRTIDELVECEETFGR
The experiment is described as follows: Inhibition of a panel of kinases, in vitro HotSpot kinase assay: TEC. It is filed as biochemical. Particulars: D-compounds panel data; 1 μM ATP. How it is done:
The degree of inhibition of a panel of kinases is determined using the in vitro HotSpot kinase assay (purified enzymes, ^33P-ATP, an appropriate substrate and 1 μM ATP).

For the molecule `Cn1cc(Nc2nc(N3CCC[C@@H](n4ccc5cc(C6CC6)ccc5c4=O)C3)cnc2C(N)=O)cn1` [Example D-184, 5-[(3R)-3-(6-cyclopropyl-1-oxo-1,2-dihydroisoquinolin-2-yl)piperidin-1-yl]-3-[(1-methyl-1H-pyrazol-4-yl)amino]pyrazine-2-carboxamide], the 50% inhibitory concentration (IC50) – broadly, the concentration that inhibits the measured activity by half – was over 10000 nM on JAK3 and 10 to 100 nM against TEC.
With `C[C@@H]1[C@H](NC(=O)c2ccc(C3CC3)cc2)CCCN1c1cnc(C(N)=O)c(Nc2cnn(CC(C)(C)O)c2)n1` [Example D-215, 5-[(2R,3R)-3-(4-cyclopropylbenzamido)-2-methylpiperidin-1-yl]-3-{[1-(2-hydroxy-2-methylpropyl)-1H-pyrazol-4-yl]amino}pyrazine-2-carboxamide], the IC50 at JAK3 was over 10000 nM; at TEC, 100 to 1000 nM.
Take `Cc1cc(Nc2nc(N3C[C@H](NC(=O)c4ccc(C5CC5)cc4F)CC[C@@H]3C)cnc2C(N)=O)sn1` [Example D-181, 5-[(2S,5R)-5-(4-cyclopropyl-2-fluorobenzamido)-2-methylpiperidin-1-yl]-3-[(3-methyl-1,2-thiazol-5-yl)amino]pyrazine-2-carboxamide]: the IC50 was in the range of 100 to 1000 nM on JAK3 and 10 to 100 nM against TEC.
For `C[C@@H]1[C@H](NC(=O)c2ccc(OC3CC3)cc2)CCCN1c1cnc(C(N)=O)c(Nc2cnn(C)c2)n1` [Example D-219, 5-[(2R,3R)-3-(4-cyclopropoxybenzamido)-2-methylpiperidin-1-yl]-3-[(1-methyl-1H-pyrazol-4-yl)amino]pyrazine-2-carboxamide], the IC50 was 1000 to 10000 nM at JAK3 and at most 10 nM against TEC.
On to `C[C@@H]1[C@H](NC(=O)c2cnc(C3CC3)cn2)CCCN1c1cnc(C(N)=O)c(Nc2cnn(C)c2)n1` [Example D-205, 5-[(2R,3R)-3-(5-cyclopropylpyrazine-2-amido)-2-methylpiperidin-1-yl]-3-[(1-methyl-1H-pyrazol-4-yl)amino]pyrazine-2-carboxamide], for which the figures for the IC50 at JAK3 and at TEC were 1000 to 10000 nM and at most 10 nM, respectively.
Regarding `C[C@@H]1[C@H](NC(=O)c2ccc(SC(F)(F)F)cc2)CCCN1c1cnc(C(N)=O)c(Nc2cnn(C)c2)n1` [Example D-241, 3-[(1-methyl-1H-pyrazol-4-yl)amino]-5-[(2R,3R)-2-methyl-3-{4-[(trifluoromethyl)sulfanyl]benzamido}piperidin-1-yl]pyrazine-2-carboxamide], the IC50 fell in the range of 1000 to 10000 nM on JAK3 and 10 to 100 nM against TEC.
On the same counts, the results for `C[C@@H]1[C@H](NC(=O)c2ccc(C(C)(C)O)cc2)CCCN1c1cnc(C(N)=O)c(Nc2cnn(C)c2)n1` [Example D-194, 5-[(2R,3R)-3-[4-(2-hydroxypropan-2-yl)benzamido]-2-methylpiperidin-1-yl]-3-[(1-methyl-1H-pyrazol-4-yl)amino]pyrazine-2-carboxamide] are 1000 to 10000 nM and at most 10 nM.
As to `COc1cc(C(=O)N[C@@H]2CCCN(c3cnc(C(N)=O)c(Nc4cnn(C)c4)n3)[C@@H]2C)ccc1C1CC1` [Example D-231, 5-[(2R,3R)-3-(4-cyclopropyl-3-methoxybenzamido)-2-methylpiperidin-1-yl]-3-[(1-methyl-1H-pyrazol-4-yl)amino]pyrazine-2-carboxamide], the results for the IC50 on JAK3 and on TEC were over 10000 nM and 10 to 100 nM, respectively.
Turning to `C[C@@H]1[C@H](NC(=O)c2ccc(C3CC3)cn2)CCCN1c1cnc(C(N)=O)c(Nc2ccc(N3CCN(C)CC3)cc2)n1` [Example D-188, 5-[(2R,3R)-3-(5-cyclopropylpyridine-2-amido)-2-methylpiperidin-1-yl]-3-{[4-(4-methylpiperazin-1-yl)phenyl]amino}pyrazine-2-carboxamide], the 50% inhibitory concentration (IC50) fell in the range of 1000 to 10000 nM on JAK3 and 10 to 100 nM against TEC.
On the same counts, the results for `C[C@@H]1[C@H](NC(=O)c2ccc(N(C)CCO)cc2)CCCN1c1cnc(C(N)=O)c(Nc2cnn(C)c2)n1` [Example D-217, 5-[(2R,3R)-3-{4-[(2-hydroxyethyl)(methyl)amino]benzamido}-2-methylpiperidin-1-yl]-3-[(1-methyl-1H-pyrazol-4-yl)amino]pyrazine-2-carboxamide] are 100 to 1000 nM and at most 10 nM.
On the same counts, the results for `CN1CCN(c2ccc(Nc3cc(N4CCC[C@@H](n5ccc6cc(C7CC7)ccc6c5=O)C4)cnc3C(N)=O)cc2)CC1` [Example D-178, 5-[(3R)-3-(6-cyclopropyl-1-oxo-1,2-dihydroisoquinolin-2-yl)piperidin-1-yl]-3-{[4-(4-methylpiperazin-1-yl)phenyl]amino}pyridine-2-carboxamide] are over 10000 nM and 1000 to 10000 nM.
Turning to `C[C@@H]1[C@H](NC(=O)c2ccc(C(C)(O)C(F)(F)F)cc2)CCCN1c1cnc(C(N)=O)c(Nc2cnn(C)c2)n1` (single isomer, unassigned) [Example D-214], the results for the IC50 on JAK3 and against TEC were 1000 to 10000 nM and at most 10 nM, respectively.
Take `Cn1cc(Nc2nc(N3C4CCC(NC(=O)c5ccc(C6CC6)cc5)C3CC4)cnc2C(N)=O)cn1` (single isomer, unassigned) [Example D-202, 5-[2-(4-cyclopropylbenzamido)-8-azabicyclo[3.2. I]octan-8-yl]-3-[(1-methyl-1H-pyrazol-4-yl)amino]pyrazine-2-carboxamide]: the IC50 at JAK3 was over 10000 nM; against TEC, 100 to 1000 nM.
On the same counts, the results for `CN1CCN([C@@H]2CCCN(c3cnc(C(N)=O)c(Nc4cnn(C)c4)n3)C2)C1=O` [Example D-209, 3-[(1-methyl-1H-pyrazol-4-yl)amino]-5-[(3R)-3-(3-methyl-2-oxoimidazolidin-1-yl)piperidin-1-yl]pyrazine-2-carboxamide] are 1000 to 10000 nM and 10 to 100 nM.
For `C/C=C/c1ccc(C(=O)N[C@@H]2CCCN(c3cnc(C(N)=O)c(Nc4cc(C)ns4)c3)[C@@H]2C)c(F)c1` [Example D-170, 5-[(2R,3R)-3-{2-fluoro-4-[(1E)-prop-1-en-1-yl]benzamido}-2-methylpiperidin-1-yl]-3-[(3-methyl-1,2-thiazol-5-yl)amino]pyridine-2-carboxamide], the 50% inhibitory concentration (IC50) lay within 1000 to 10000 nM at JAK3 and 100 to 1000 nM at TEC.
In the case of `Cn1cc(Nc2nc(N3CCC(F)(F)[C@@H](NC(=O)c4ccc(C5CC5)cc4)C3)cnc2C(N)=O)cn1` [Example D-193, 5-[(3S)-3-(4-cyclopropylbenzamido)-4,4-difluoropiperidin-1-yl]-3-[(1-methylpyrazol-4-yl)amino]pyrazine-2-carboxamide], the IC50 is 1000 to 10000 nM at JAK3 and 100 to 1000 nM on TEC.
On the same counts, the results for `C[C@@H]1[C@H](NC(=O)c2ccc(SC(F)(F)F)cc2)CCCN1c1cnc(C(N)=O)c(Nc2ccc(N3CCN(C)CC3)cc2)n1` [Example D-233, 5-[(2R,3R)-2-methyl-3-{4-[(trifluoromethyl)sulfanyl]benzamido}piperidin-1-yl]-3-{[4-(4-methylpiperazin-1-yl)phenyl]amino}pyrazine-2-carboxamide] are 1000 to 10000 nM and 10 to 100 nM.
On the same counts, the results for `C[C@@H]1[C@H](NC(=O)c2ccc(C(C)(O)C(F)(F)F)cc2)CCCN1c1cnc(C(N)=O)c(Nc2cnn(C)c2)n1` (single isomer, unassigned) [Example D-213] are 1000 to 10000 nM and at most 10 nM.
